Data from US9108983B2, “Pyrrole compounds, a process for their preparation and pharmaceutical compositions containing them” (LES LABORATOIRES SERVIER, priority 2013, dated 2015).
Structures can show the parent of a compound that is named as a salt. Where two headings read alike, the source gives them in different places.

Columns and labels:
Bcl-2 protein = Bcl-2 protein (histag-Bcl-2, UniProtKB P10415) (Homo sapiens (Human), UniProt P10415); assay: Inhibition of Bcl-2 by the fluorescence polarisation technique; assay type: binding; conditions: incubation for 2 hours, read-out: IC50 (nM) Bcl-2 FP
Sequence of Bcl-2 protein (P10415 whole entry): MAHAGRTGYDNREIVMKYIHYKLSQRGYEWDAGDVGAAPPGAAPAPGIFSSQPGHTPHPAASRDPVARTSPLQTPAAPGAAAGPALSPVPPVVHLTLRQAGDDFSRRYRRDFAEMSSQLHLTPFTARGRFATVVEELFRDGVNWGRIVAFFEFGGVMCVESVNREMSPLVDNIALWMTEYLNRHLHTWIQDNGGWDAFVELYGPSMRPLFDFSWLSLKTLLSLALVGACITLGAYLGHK
Summary of the method: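 In pH 7.4 buffer (Hepes 10 mM, NaCl 150 mM, Tween20 0.05%), test compounds at increasing concentrations competed with a fluorescein peptide (1.00×10^−8 M final) for histag-Bcl-2 (2.50×10^−8 M final). Readout was fluorescence polarisation after a 2 h incubation.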

[1] = test system: RS4;11 leukaemia tumour line; assay: In vitro cytotoxicity (Microculture Tetrazolium Assay); assay type: cell-based; conditions: RS4;11 cells, exposed for 48 hours, cell viability, read-out: IC50 (nM) MTT RS4;11
Description: The cytotoxicity studies were carried out on the RS4;11 leukaemia tumour line.
The cells are distributed onto microplates and exposed to the test compounds for 48 hours.
The cell viability is then quantified by a colorimetric assay, the Microculture Tetrazolium Assay (Cancer Res., 1987, 47, 939-942).

| Structure (SMILES) | IC50 (Bcl-2 protein) [nM] | IC50 ([1]; Homo sapiens, RS4-11, 48 h) [nM] | IC50 ([1]; Homo sapiens) [nM] | IC50 [1] [nM] |
| --- | --- | --- | --- | --- |
| Cc1c(C(=O)N(c2ccc(O)cc2)c2cnc3c(ccn3C)c2)cc(-c2cc(CNC(=O)COc3ccccc3)ccc2C(=O)N2Cc3ccccc3C[C@H]2C)n1C [Example 54, N-(4-Hydroxyphenyl)-1,2-dimethyl-5-(2-{[(3R)-3-methyl-3,4-dihydroisoquinolin-2(1H)-yl]carbonyl}-5-{[(phenoxyacetyl)amino]methyl}phenyl)-N-(1-methyl-1H-pyrrolo[2,3-b]pyridin-5-yl)-1H-pyrrole-3-carboxamide] | 18 | 30.5 | – | – |
| Cc1c(C(=O)N(c2ccc(O)cc2)c2cnn(C3COC3)c2)cc(-c2cc(F)ccc2C(=O)N2Cc3ccccc3C[C@H]2CN2CCOCC2)n1C [Example 423, 5-(5-Fluoro-2-{[(3S)-3-(morpholin-4-ylmethyl)-3,4-dihydroisoquinolin-2(1H)-yl]carbonyl}phenyl)-N-(4-hydroxyphenyl)-1,2-dimethyl-N-[1-(oxetan-3-yl)-1H-pyrazol-4-yl]-1H-pyrrole-3-carboxamide] | 11.7 | 344 | – | – |
| Cc1c(C(=O)N(c2ccc(O)cc2)c2cnn(C)c2)cc(-c2cc3c(cc2C(=O)N2Cc4ccccc4C[C@H]2C)OCO3)n1CCN(C)C [Example 27, 1-[2-(Dimethylamino)ethyl]-N-(4-hydroxyphenyl)-2-methyl-5-(6-{[(3R)-3-methyl-3,4-dihydroisoquinolin-2(1H)-yl]carbonyl}-1,3-benzodioxol-5-yl)-N-(1-methyl-1H-pyrazol-4-yl)-1H-pyrrole-3-carboxamide hydrochloride] | 5.2 | 93.4 | – | – |
| COc1ccc(N(C(=O)c2cc(-c3cc(Cl)ccc3C(=O)N3Cc4ccccc4C[C@H]3CN3CCOCC3)n(C)c2C)c2ccc(O)cc2)cc1C#N [Example 395, 5-(5-Chloro-2-{[(3S)-3-(morpholin-4-ylmethyl)-3,4-dihydroisoquinolin-2(1H)-yl]carbonyl}phenyl)-N-(3-cyano-4-methoxyphenyl)-N-(4-hydroxyphenyl)-1,2-dimethyl-1H-pyrrole-3-carboxamide hydrochloride] | 3.5 | 7.57 | – | – |
| Cc1c(C(=O)N(c2ccc(O)cc2)c2cnn(C)c2)cc(-c2ccc(F)cc2C(=O)N2Cc3ccccc3C[C@H]2CN2CCOCC2)n1C [Example 447, 5-(4-Fluoro-2-{[(3S)-3-(morpholin-4-ylmethyl)-3,4-dihydroisoquinolin-2(1H)-yl]carbonyl}phenyl)-N-(4-hydroxyphenyl)-1,2-dimethyl-N-(1-methyl-1H-pyrazol-4-yl)-1H-pyrrole-3-carboxamide hydrochloride] | 20 | > 600 | – | – |
| Cc1c(C(=O)N(c2ccccc2)c2ccc(O)cc2)cc(-c2cc3c(cc2C(=O)N2Cc4ccccc4C[C@H]2C)OCO3)n1C [Example 43, N-(4-Hydroxyphenyl)-1,2-dimethyl-5-(6-{[(3R)-3-methyl-3,4-dihydroisoquinolin-2(1H)-yl]carbonyl}-1,3-benzodioxol-5-yl)-N-phenyl-1H-pyrrole-3-carboxamide] | 5.1 | 28.9 | – | – |
| COc1ccc(C(=O)N2Cc3ccccc3C[C@H]2C)c(-c2cc(C(=O)N(c3ccc(O)cc3)c3cnn(C)c3)c(C)n2C)c1 [Example 31, N-(4-Hydroxyphenyl)-5-(5-methoxy-2-{[(3R)-3-methyl-3,4-dihydroisoquinolin-2(1H)-yl]carbonyl}phenyl)-1,2-dimethyl-N-(1-methyl-1H-pyrazol-4-yl)-1H-pyrrole-3-carboxamide] | 7.2 | 89.3 | – | – |
| COc1cc(-c2cc(C(=O)N(c3ccc(O)cc3)c3cc(C#N)n(C)c3C)c(C)n2C)c(C(=O)N2Cc3ccccc3C[C@H]2CN2CCOCC2)cc1F [Example 429, N-(5-Cyano-1,2-dimethyl-1H-pyrrol-3-yl)-5-(4-fluoro-5-methoxy-2-{[(3S)-3-(morpholin-4-ylmethyl)-3,4-dihydroisoquinolin-2(1H)-yl]carbonyl}phenyl)-N-(4-hydroxyphenyl)-1,2-dimethyl-1H-pyrrole-3-carboxamide hydrochloride] | 3.1 | 109 | – | – |
| Cc1c(C(=O)N(C)c2ccc(O)cc2)cc(-c2ccc(CNC(=O)Oc3ccccc3)cc2C(=O)N2Cc3ccccc3C[C@H]2C)n1C [Example 32, Phenyl (4-{4-[(4-hydroxyphenyl)(methyl)carbamoyl]-1,5-dimethyl-1H-pyrrol-2-yl}-3-{[(3R)-3-methyl-3,4-dihydroisoquinolin-2(1H)-yl]carbonyl}benzyl)-carbamate] | 13.3 | – | 240 | – |
| Cc1c(C(=O)N(c2ccc(O)cc2)c2cnc3c(c2)CCN3C)cc(-c2cc3c(cc2C(=O)N2Cc4ccccc4C[C@H]2CN2CCOCC2)OCO3)n1C [Example 49, N-(4-Hydroxyphenyl)-1,2-dimethyl-N-(1-methyl-2,3-dihydro-1H-pyrrolo[2,3-b]pyridin-5-yl)-5-(6-{[(3S)-3-(morpholin-4-ylmethyl)-3,4-dihydroisoquinolin-2(1H)-yl]carbonyl}-1,3-benzodioxol-5-yl)-1H-pyrrole-3-carboxamide dihyrochloride] | 4 | – | – | 14.1 |
| Cc1nn(C)cc1N(C(=O)c1cc(-c2cc(F)ccc2C(=O)N2Cc3ccccc3C[C@H]2CN2CCOCC2)n(C)c1C)c1ccc(O)cc1 [Example 452, N-(1,3-Dimethyl-1H-pyrazol-4-yl)-5-(5-fluoro-2-{[(3S)-3-(morpholin-4-ylmethyl)-3,4-dihydroisoquinolin-2(1H)-yl]carbonyl}phenyl)-N-(4-hydroxyphenyl)-1,2-dimethyl-1H-pyrrole-3-carboxamide hydrochloride] | 8.3 | 112 | – | – |
| Cc1c(C(=O)N(c2ccc(O)cc2)c2cnn(C)c2)cc(-c2cc3c(cc2C(=O)N2Cc4ccccc4C[C@H]2CN2CCOCC2)OCCO3)n1C [Example 21, N-(4-Hydroxyphenyl)-1,2-dimethyl-N-(1-methyl-1H-pyrazol-4-yl)-5-(7-{[(3S)-3-(morpholin-4-ylmethyl)-3,4-dihydroisoquinolin-2(1H)-yl]carbonyl}-2,3-dihydro-1,4-benzodioxin-6-yl)-1H-pyrrole-3-carboxamide hydrochloride] | 4.7 | 79.9 | – | – |
| Cc1c(C(=O)N(c2ccc(O)cc2)c2cnn(C)c2)cc(-c2cc(Cl)ccc2C(=O)N2Cc3ccccc3C[C@H]2C)n1C [Example 1, 5-(5-Chloro-2-{[(3R)-3-methyl-3,4-dihydroisoquinolin-2(1H)-yl]carbonyl}phenyl)-N-(4-hydroxyphenyl)-1,2-dimethyl-N-(1-methyl-1H-pyrazol-4-yl)-1H-pyrrole-3-carboxamide] | 5 | 33.6 | – | – |
| Cc1c(C(=O)N(c2ccc(O)cc2)c2cnn(C)c2)cc(-c2cc3c(cc2C(=O)N2Cc4ccccc4C[C@H]2CN2CCOCC2)OCO3)n1CCF [Example 94, 1-(2-Fluoroethyl)-N-(4-hydroxyphenyl)-2-methyl-N-(1-methyl-1H-pyrazol-4-yl)-5-(6-{[(3S)-3-(morpholin-4-ylmethyl)-3,4-dihydroisoquinolin-2(1H)-yl]carbonyl}-1,3-benzodioxol-5-yl)-1H-pyrrole-3-carboxamide hydrochloride] | 8.6 | 104 | – | – |
| Cc1c(C(=O)N(c2ccc(O)cc2)c2cccc(F)c2)cc(-c2cc3c(cc2C(=O)N2Cc4ccccc4C[C@H]2C)OCO3)n1C [Example 41, N-(3-Fluorophenyl)-N-(4-hydroxyphenyl)-1,2-dimethyl-5-(6-{[(3R)-3-methyl-3,4-dihydroisoquinolin-2(1H)-yl]carbonyl}-1,3-benzodioxol-5-yl)-1H-pyrrole-3-carboxamide] | 10 | 22.6 | – | – |
